{"source": "patent US20250195530A1", "about": "“POLQ INHIBITORS” (ASTRAZENECA AB, priority 2022, published 2025)", "key": {"DLD-1 cells": {"system": "DLD-1 cells", "assay": "Inhibition of proliferation, DLD-1 BRCA2 wt control (Cell Titre Glo 3D)", "format": "cell-based", "conditions": "Homo sapiens", "outline": "(§1)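 Wild-type DLD-1 serves as the control for non-specific toxicity, and BRCA2-null DLD-1 as the homologous-recombination-deficient line. Both grew with compound from 10 μM down to 0.51 nM, re-dosed after 6 days. Luminescent ATP content (CellTiter-Glo 3D) was read after 7 or 12 days, respectively, to give IC50 values.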"}, "DLD-1 BRCA2−/− cells": {"system": "DLD-1 BRCA2−/− cells", "assay": "Homologous recombination synthetic lethal inhibition of proliferation, DLD-1 BRCA2-/- (Cell Titre Glo 3D)", "format": "cell-based", "conditions": "Homo sapiens", "outline": "as §1"}, "[1]": {"conditions": "DLD-1, second proliferation column (c6), taken as DLD-1 BRCA2 wt, read-out: POLQ PD Prolif Lumin (converted)"}, "[2]": {"conditions": "DLD-1, first proliferation column (c5), taken as DLD-1 BRCA2-/-, read-out: POLQ PD Prolif Lumin (converted)"}, "[3]": {"conditions": "DLD-1, 168 h, DLD-1 BRCA2 wt cells, 7 days, read-out: POLQ PD Prolif Lumin DLD1 mean pIC50 (converted)"}, "[4]": {"conditions": "DLD-1, 288 h, DLD-1 BRCA2−/− cells, 12 days, read-out: POLQ PD Prolif Lumin BRCA2 −/− mean pIC50 (converted)"}}, "note": "Like-named read-outs stand apart in the source and are kept apart here."}
{"compound": "Cc1ccnc(Cn2c(-c3ccc(CC(=O)N(C)CCO)cc3Cl)nc3c(OC4(C)CC4)ncnc32)c1", "note": "[Example T369, 2-(3-chloro-4-(6-(1-methylcyclopropoxy)-9-((4-methylpyridin-2-yl)methyl)-9H-purin-8-yl)phenyl)-N-(2-hydroxyethyl)-N-methylacetamide]", "values": [{"measurement": "IC50", "setting": "DLD-1 cells; [1]", "value": "> 10000", "unit": "nM"}, {"measurement": "IC50", "setting": "DLD-1 BRCA2−/− cells; [2]", "value": 1000, "unit": "nM"}]}
{"compound": "CC1(Oc2ncnc3c2nc(-c2ccc(OCCN4CCNCC4)cc2Cl)n3Cc2ncc(C(F)(F)F)s2)CC1", "note": "[Example T207, 2-((8-(2-chloro-4-(2-(piperazin-1-yl)ethoxy)phenyl)-6-(1-methylcyclopropoxy)-9H-purin-9-yl)methyl)-5-(trifluoromethyl)thiazole]", "values": [{"measurement": "IC50", "setting": "DLD-1 cells; DLD-1, DLD-1 BRCA2 wt control proliferation, column head only partly shown, read-out: POLQ PD Prolif Lumin (converted)", "value": 10000, "unit": "nM"}, {"measurement": "IC50", "setting": "DLD-1 BRCA2−/− cells; DLD-1, DLD-1 BRCA2-/- proliferation, column head only partly shown, read-out: POLQ PD Prolif Lumin (converted)", "value": 794, "unit": "nM"}]}
{"compound": "Cc1ccnc(Cn2c(-c3ccc(CC(=O)N4CC(C)(O)C4)cc3Cl)nc3c(OC4(C)CC4)ncnc32)c1", "note": "[Example T470, 2-(3-chloro-4-(6-(1-methylcyclopropoxy)-9-((4-methylpyridin-2-yl)methyl)-9H-purin-8-yl)phenyl)-1-(3-hydroxy-3-methylazetidin-1-yl)ethan-1-one]", "values": [{"measurement": "IC50", "setting": "DLD-1 cells; DLD-1, proliferation, luminescence, second Prolif column (c6), taken as DLD-1 BRCA2 wt control, read-out: POLQ PD Prolif Lumin (converted)", "value": "> 10000", "unit": "nM"}, {"measurement": "IC50", "setting": "DLD-1 BRCA2−/− cells; DLD-1, proliferation, luminescence, taken as DLD-1 BRCA2-/-, read-out: POLQ PD Prolif Lumin (converted)", "value": 1000, "unit": "nM"}]}
{"compound": "C[C@@H](CCOc1cccc(-c2nc3c(OC4(C)CC4)ncnc3n2Cc2cc(Cl)ccc2F)c1Cl)C(=O)O", "note": "[Example U24, (S)-4-(2-chloro-3-(9-(5-chloro-2-fluorobenzyl)-6-(1-methylcyclopropoxy)-9H-purin-8-yl)phenoxy)-2-methylbutanoic acid]", "values": [{"measurement": "IC50", "setting": "DLD-1 cells; DLD-1, DLD1 BRCA2 wt, mean, read-out: POLQ PD Prolif Lumin DLD1 mean pIC50 (converted)", "value": "> 10000", "unit": "nM"}, {"measurement": "IC50", "setting": "DLD-1 BRCA2−/− cells; DLD-1, DLD-1 BRCA2 −/−, mean, read-out: POLQ PD Prolif Lumin BRCA2 −/− mean pIC50 (converted)", "value": 12.6, "unit": "nM"}]}
{"compound": "CN(C)CCCOc1ccc(-c2nc3c(OC4(C)CC4)nccc3n2Cc2cc(Cl)ccn2)c(Cl)c1", "note": "[Example T377, 3-(3-chloro-4-(1-((4-chloropyridin-2-yl)methyl)-4-(1-methylcyclopropoxy)-1H-imidazo[4,5-c]pyridin-2-yl)phenoxy)-N,N-dimethylpropan-1-amine]", "values": [{"measurement": "IC50", "setting": "DLD-1 cells; [1]", "value": "> 7940", "unit": "nM"}, {"measurement": "IC50", "setting": "DLD-1 BRCA2−/− cells; [2]", "value": 158, "unit": "nM"}]}
{"compound": "Cc1cc(Cl)cc(Cn2c(-c3ccc(OCCN4CCNCC4)cc3Cl)nc3c(OC4(C)CC4)ncnc32)n1", "note": "[Example T527, 8-(2-chloro-4-(2-(piperazin-1-yl)ethoxy)phenyl)-9-((4-chloro-6-methylpyridin-2-yl)methyl)-6-(1-methylcyclopropoxy)-9H-purine]", "values": [{"measurement": "IC50", "setting": "DLD-1 cells; DLD-1, second proliferation column (c6), DLD-1 BRCA2 wt control, read-out: POLQ PD Prolif Lumin (converted)", "value": "> 6310", "unit": "nM"}, {"measurement": "IC50", "setting": "DLD-1 BRCA2−/− cells; DLD-1, first proliferation column (c5), DLD-1 BRCA2-/-, read-out: POLQ PD Prolif Lumin (converted)", "value": 398, "unit": "nM"}]}
{"compound": "Cc1ccnc(Cn2c(-c3ccc(OC4CN(C(=O)CO)C4)cc3Cl)nc3c(OC4(C)CC4)ncnc32)c1", "note": "[Example 39, 1-(3-(3-Chloro-4-(6-(1-methylcyclopropoxy)-9-((4-methylpyridin-2-yl)methyl)-9H-purin-8-yl)phenoxy)azetidin-1-yl)-2-hydroxyethan-1-one]", "values": [{"measurement": "IC50", "setting": "DLD-1 cells; DLD-1, 168 h, DLD-1 (BRCA2 wt control), 7 days, Cell Titre Glo 3D, read-out: POLQ PD Prolif Lumin DLD1 Mean pIC50 (converted)", "value": "> 10000", "unit": "nM"}, {"measurement": "IC50", "setting": "DLD-1 BRCA2−/− cells; DLD-1, 288 h, DLD-1 BRCA2−/−, 12 days, Cell Titre Glo 3D, read-out: POLQ PD Prolif Lumin BRCA2 −/− Mean pIC50 (converted)", "value": 158, "unit": "nM"}]}
{"compound": "CN1CCN(CCOc2cccc(-c3nc4c(OC5(C)CC5)ncnc4n3Cc3ccccc3)c2Cl)CC1", "note": "[Example D12, 9-benzyl-8-(2-chloro-3-(2-(4-methylpiperazin-1-yl)ethoxy)phenyl)-6-(1-methylcyclopropoxy)-9H-purine]", "values": [{"measurement": "IC50", "setting": "DLD-1 cells; [3]", "value": 5010, "unit": "nM"}, {"measurement": "IC50", "setting": "DLD-1 BRCA2−/− cells; [4]", "value": 50.1, "unit": "nM"}]}
{"compound": "Cc1ccnc(Cn2c(-c3ccc(C(=O)O)cc3Cl)nc3c(OC4(C)CC4)ncnc32)c1", "note": "[Example T13, 3-chloro-4-(6-(1-methylcyclopropoxy)-9-((4-methylpyridin-2-yl)methyl)-9H-purin-8-yl)benzoic acid]", "values": [{"measurement": "IC50", "setting": "DLD-1 cells; DLD-1, DLD1 BRCA2 wt cells, mean, read-out: POLQ PD Prolif Lumin DLD1 mean PIC50 (converted)", "value": "> 10000", "unit": "nM"}, {"measurement": "IC50", "setting": "DLD-1 BRCA2−/− cells; DLD-1, DLD-1 BRCA2 −/− cells, mean, read-out: POLQ PD Prolif Lumin BRCA2 −/− mean pIC50 (converted)", "value": "> 10000", "unit": "nM"}]}
{"compound": "COc1cccc(Cn2c(-c3ccc(OCCN4CCNCC4)cc3Cl)nc3c(OC4(C)CC4)ncnc32)n1", "note": "[Example K10, 8-(2-chloro-4-(2-(piperazin-1-yl)ethoxy)phenyl)-9-((6-methoxypyridin-2-yl)methyl)-6-(1-methylcyclopropoxy)-9H-purine]", "values": [{"measurement": "IC50", "setting": "DLD-1 cells; [3]", "value": "> 10000", "unit": "nM"}, {"measurement": "IC50", "setting": "DLD-1 BRCA2−/− cells; [4]", "value": 1580, "unit": "nM"}]}
{"compound": "CC(CCOc1ccc(-c2nc3c(OC4(C)CC4)ncnc3n2Cc2ccccc2C2CC2)c(Cl)c1)C(=O)O", "note": "(racemic) [Example T598, 4-(3-chloro-4-(9-(2-cyclopropylbenzyl)-6-(1-methylcyclopropoxy)-9H-purin-8-yl)phenoxy)-2-methylbutanoic acid]", "values": [{"measurement": "IC50", "setting": "DLD-1 cells; DLD-1, second proliferation column, DLD-1 BRCA2 wt control, read-out: POLQ PD Prolif Lumin (converted)", "value": "> 10000", "unit": "nM"}, {"measurement": "IC50", "setting": "DLD-1 BRCA2−/− cells; DLD-1, first proliferation column, DLD-1 BRCA2-/-, read-out: POLQ PD Prolif Lumin (converted)", "value": 631, "unit": "nM"}]}
